Columns and labels:
Experiment in all cases: relative viability (nuclei count vs DMSO), 5 days (fraction); higher = more cells survive
BMX-IN-1 = compound: C=CC(=O)Nc1cc(-n2c(=O)ccc3cnc4ccc(-c5ccc(NS(C)(=O)=O)cc5)cc4c32)ccc1C [BMX-IN-1]
Method in brief: (§1)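 Viability was read as treated-well nuclei divided by vehicle-well nuclei, using the median across plates. Lung cancer cell lines in 1536-well plates were kept overnight at 37 °C, pinned with five √10-spaced library-drug doses, and after 5 days were Hoechst-stained, imaged at 4× and counted in MetaXpress. Plates passed only with control CV below 25% and at least one doubling.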

PAC-1 = compound: C=CCc1cccc(/C=N/NC(=O)CN2CCN(Cc3ccccc3)CC2)c1O [PAC-1]
Method in brief: as §1

BMX-IN-1 + Lapatinib = compound: C=CC(=O)Nc1cc(-n2c(=O)ccc3cnc4ccc(-c5ccc(NS(C)(=O)=O)cc5)cc4c32)ccc1C [BMX-IN-1] + CS(=O)(=O)CCNCc1ccc(-c2ccc3ncnc(Nc4ccc(OCc5cccc(F)c5)c(Cl)c4)c3c2)o1 [Lapatinib] (partner 2 µM)
Method in brief: (§2)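 Five library-drug doses in √10 steps were combined with a fixed anchor-drug dose, or a single drug was given alone, by pin tool to lung cancer cell lines in 1536-well plates the day after seeding. Nuclei were stained and counted after 5 days. Relative viability is the nuclei count in treated wells over that in vehicle wells, taken as the median of duplicate plates.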

BMX-IN-1 + Bortezomib = compound: C=CC(=O)Nc1cc(-n2c(=O)ccc3cnc4ccc(-c5ccc(NS(C)(=O)=O)cc5)cc4c32)ccc1C [BMX-IN-1] + CC(C)C[C@H](NC(=O)[C@H](Cc1ccccc1)NC(=O)c1cnccn1)B(O)O [Bortezomib] (partner 0.002 µM)
Method in brief: as §2

Cell Line | relative viability (BMX-IN-1; 0.02 µM) | relative viability (BMX-IN-1; 0.2 µM) | relative viability (BMX-IN-1; 0.6325 µM) | relative viability (BMX-IN-1; 2 µM) | relative viability (PAC-1; 0.02 µM) | relative viability (PAC-1; 0.06325 µM) | relative viability (PAC-1; 0.2 µM) | relative viability (PAC-1; 2 µM) | relative viability (BMX-IN-1 + Lapatinib; first compound 0.02 µM) | relative viability (BMX-IN-1 + Lapatinib; first compound 0.2 µM) | relative viability (BMX-IN-1 + Lapatinib; first compound 0.6325 µM) | relative viability (BMX-IN-1 + Lapatinib; first compound 2 µM) | relative viability (BMX-IN-1 + Bortezomib; first compound 0.02 µM) | relative viability (BMX-IN-1 + Bortezomib; first compound 0.2 µM) | relative viability (BMX-IN-1 + Bortezomib; first compound 0.6325 µM) | relative viability (BMX-IN-1 + Bortezomib; first compound 2 µM)
201T | 1.11 | 0.996 | 1.05 | 1.03 | 0.959 | 1.02 | 1.01 | 0.981 | 1.03 | 1.04 | 1.05 | 1.05 | 1.13 | 1.07 | 1.12 | 1.1
A549 | 1.17 | 1.17 | 1.05 | 1.07 | 0.994 | 0.962 | 0.943 | 0.96 | 1.04 | 1.47 | 1.17 | 1.02 |  |  |  | 
A-427 | 1.08 | 1.12 | 1.17 | 1.03 | 1.01 | 1.04 | 0.976 | 0.97 | 1.21 | 0.995 | 1.17 | 1.06 | 1.03 | 1.06 | 1.18 | 0.985
ABC-1 | 1.05 | 1.02 | 1.01 | 1.05 | 0.992 | 0.952 | 0.975 | 0.887 | 1.46 | 1.23 | 1.16 | 1.28 | 0.34 | 0.302 | 0.244 | 0.306
BEN | 1.17 | 1.27 | 0.861 | 1.01 | 0.987 | 0.901 | 0.912 | 1.04 | 0.829 | 0.891 | 0.729 | 0.724 | 0.808 | 0.95 | 0.7 | 0.772
CAL-12T | 1.08 | 0.995 | 1.03 | 0.989 | 1.02 | 1.11 | 0.984 | 0.947 | 0.692 | 0.722 | 0.795 | 0.613 | 0.92 | 0.785 | 1.17 | 0.949
COR-L23 | 1.35 | 1.16 | 1.17 | 1.07 | 1.09 | 1 | 0.9 | 1 | 1.65 | 1.47 | 1.17 | 0.941 | 1.27 | 1.54 | 1.09 | 1.05
COR-L 105 | 1.07 | 0.937 | 1.3 | 0.961 | 0.919 | 0.901 | 0.903 | 0.985 | 0.327 | 0.33 | 0.376 | 0.371 | 0.965 | 0.697 | 1.03 | 0.659
Calu-6 | 1.14 | 1.06 | 1.2 | 0.999 | 0.98 | 1.01 | 0.964 | 1.01 | 1 | 1.44 | 1.33 | 1.06 | 1.03 | 1.09 | 1.31 | 1.07
ChaGo-K-1 | 1.14 | 1.05 | 0.963 | 1.02 | 1.05 | 1.01 | 1 | 0.929 |  |  |  |  | 1.08 | 1.1 | 1.31 | 1.17
EBC-1 | 1.06 | 0.952 | 1.14 | 0.964 | 1.04 | 0.932 | 0.949 | 1 | 0.243 | 0.181 | 0.206 | 0.168 | 0.574 | 0.581 | 0.626 | 0.598
EKVX | 1.02 | 0.944 | 1.02 | 1.01 | 1.02 | 0.977 | 0.934 | 0.98 | 0.208 | 0.197 | 0.216 | 0.189 | 1.42 | 1.23 | 1.11 | 1.19
EMC-BAC-2 | 1 | 1.13 | 1.07 | 0.95 | 0.998 | 1.02 | 1.09 | 0.97 | 0.985 | 0.997 | 0.991 | 0.887 | 1.15 | 1.1 | 1.26 | 1.1
EPLC-272H | 1.01 | 0.954 | 0.874 | 0.952 | 0.877 | 1.04 | 0.941 | 0.929 | 1.03 | 0.929 | 1.14 | 1.08 | 1.28 | 1.09 | 0.872 | 0.887
H3255 | 1.08 | 0.974 | 1.12 | 1.02 | 1.07 | 1.01 | 0.942 | 0.909 | 0.207 | 0.206 | 0.207 | 0.222 | 0.916 | 0.466 | 0.99 | 0.732
HARA | 1.05 | 1.04 | 1.08 | 1.08 | 0.98 | 1.08 | 0.905 | 1.03 | 0.997 | 0.842 | 1.01 | 0.69 | 1.14 | 1.62 | 1.16 | 1.22
HCC-15 | 1.11 | 1.1 | 1.11 | 1.13 | 1.09 | 1.08 | 0.969 | 1.08 | 0.933 | 0.955 | 0.985 | 0.984 | 1.25 | 1.06 | 1.24 | 1.1
HCC-44 | 1.03 | 1.06 | 1.13 | 0.998 | 0.99 | 1.05 | 0.997 | 0.981 | 1.07 | 1.28 | 1.22 | 1.11 | 0.902 | 1.06 | 1.07 | 0.957
HCC-78 | 1.01 | 1.08 | 1.02 | 0.952 | 1.01 | 0.892 | 0.974 | 1.11 | 0.812 | 0.835 | 0.663 | 0.878 | 0.534 | 0.474 | 0.432 | 0.546
HCC-366 | 1.13 | 1.09 | 1.05 | 1.04 | 0.997 | 0.979 | 1.02 | 1.03 | 1.53 | 1.65 | 1.07 | 1.12 | 1.88 | 1.78 | 1.28 | 1.09

Reference: the supplement of paper PMC10307832
